What was measured:
Format in all cases: cell-based
human TLR9 = target: T1, human TLR9 (Homo sapiens, UniProt Q9NR96); test: TLR9 inhibition reporter assay (HEK-Blue SEAP); conditions: HEK-Blue cells overexpressing human TLR9, stimulated with ODN2006 5 nM, 22 hour incubation
T1 construct: host or cells: HEK-Blue cells
T1 sequence (Q9NR96 26-1032): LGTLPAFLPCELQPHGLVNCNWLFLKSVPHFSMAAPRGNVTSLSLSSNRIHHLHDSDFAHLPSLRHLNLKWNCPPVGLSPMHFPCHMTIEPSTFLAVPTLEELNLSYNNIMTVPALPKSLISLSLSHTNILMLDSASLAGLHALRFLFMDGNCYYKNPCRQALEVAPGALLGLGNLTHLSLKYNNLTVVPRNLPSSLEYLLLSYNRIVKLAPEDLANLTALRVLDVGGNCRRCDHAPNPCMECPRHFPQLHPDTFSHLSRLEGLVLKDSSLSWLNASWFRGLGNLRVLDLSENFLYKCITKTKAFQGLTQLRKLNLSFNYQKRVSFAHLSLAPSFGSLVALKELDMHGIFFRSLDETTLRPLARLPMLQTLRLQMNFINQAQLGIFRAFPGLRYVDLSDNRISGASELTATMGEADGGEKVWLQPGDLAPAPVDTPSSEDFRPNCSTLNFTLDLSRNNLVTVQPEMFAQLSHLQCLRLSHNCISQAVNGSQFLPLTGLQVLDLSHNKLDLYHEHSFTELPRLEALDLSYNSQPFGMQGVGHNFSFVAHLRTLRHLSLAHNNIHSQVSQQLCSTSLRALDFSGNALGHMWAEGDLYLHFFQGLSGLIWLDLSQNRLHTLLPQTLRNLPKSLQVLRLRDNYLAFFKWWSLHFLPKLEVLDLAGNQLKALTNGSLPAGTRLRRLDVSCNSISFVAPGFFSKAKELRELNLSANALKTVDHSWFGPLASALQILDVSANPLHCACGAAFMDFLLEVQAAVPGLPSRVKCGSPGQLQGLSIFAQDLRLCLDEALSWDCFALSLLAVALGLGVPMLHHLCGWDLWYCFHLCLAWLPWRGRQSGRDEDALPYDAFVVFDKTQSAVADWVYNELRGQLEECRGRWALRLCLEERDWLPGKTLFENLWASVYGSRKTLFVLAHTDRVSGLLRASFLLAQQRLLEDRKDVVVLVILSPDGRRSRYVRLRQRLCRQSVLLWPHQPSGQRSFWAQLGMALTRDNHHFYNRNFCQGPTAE
In short: (§1)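 HEK-Blue cells overexpressing human TLR7, TLR8 or TLR9 with an NF-κB/AP-1-driven SEAP reporter were pre-treated 30 min at room temperature with compound (0.05 nM to 50 μM), then stimulated with gardiquimod 7.5 μM (TLR7), R848 15.9 μM (TLR8) or ODN2006 5 nM (TLR9). SEAP measured after 22 h at 37° C; inhibition normalized between agonist-plus-DMSO and reference-inhibitor wells.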

human TLR7 = target: T2, human TLR7 (Homo sapiens, UniProt Q9NYK1); test: TLR7 inhibition reporter assay (HEK-Blue SEAP); conditions: HEK-Blue cells overexpressing human TLR7, stimulated with gardiquimod 7.5 μM, 22 hour incubation
T2 construct: host or cells: HEK-Blue cells
T2 sequence (Q9NYK1 27-1049): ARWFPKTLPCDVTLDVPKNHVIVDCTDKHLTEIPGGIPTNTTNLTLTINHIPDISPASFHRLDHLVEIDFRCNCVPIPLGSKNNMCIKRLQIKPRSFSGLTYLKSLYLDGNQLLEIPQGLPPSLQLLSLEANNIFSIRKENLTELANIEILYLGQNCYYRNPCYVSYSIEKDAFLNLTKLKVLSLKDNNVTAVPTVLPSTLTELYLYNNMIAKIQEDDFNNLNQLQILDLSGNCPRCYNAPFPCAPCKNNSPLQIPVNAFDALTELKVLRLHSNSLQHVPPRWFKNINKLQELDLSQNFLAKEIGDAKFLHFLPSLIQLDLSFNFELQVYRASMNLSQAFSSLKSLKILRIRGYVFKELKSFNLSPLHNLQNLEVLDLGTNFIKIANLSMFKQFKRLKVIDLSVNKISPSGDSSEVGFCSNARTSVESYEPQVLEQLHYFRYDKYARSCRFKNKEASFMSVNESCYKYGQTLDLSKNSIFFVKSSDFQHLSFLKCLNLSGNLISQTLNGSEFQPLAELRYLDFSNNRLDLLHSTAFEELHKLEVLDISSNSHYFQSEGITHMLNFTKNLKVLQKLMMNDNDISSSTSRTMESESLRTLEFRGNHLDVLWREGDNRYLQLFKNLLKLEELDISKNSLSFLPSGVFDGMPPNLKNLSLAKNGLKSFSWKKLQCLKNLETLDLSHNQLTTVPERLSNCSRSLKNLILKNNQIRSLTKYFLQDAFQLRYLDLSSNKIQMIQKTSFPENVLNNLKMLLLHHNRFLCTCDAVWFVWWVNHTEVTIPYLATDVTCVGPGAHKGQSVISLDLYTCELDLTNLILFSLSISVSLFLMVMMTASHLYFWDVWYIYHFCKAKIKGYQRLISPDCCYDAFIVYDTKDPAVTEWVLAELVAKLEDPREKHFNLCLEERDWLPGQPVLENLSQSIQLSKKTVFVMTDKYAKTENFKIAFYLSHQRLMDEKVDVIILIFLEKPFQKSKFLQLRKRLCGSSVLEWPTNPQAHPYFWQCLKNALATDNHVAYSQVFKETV
In short: as §1

human TLR8 = target: T3, human TLR8 (Homo sapiens, UniProt Q9NR97); test: TLR8 inhibition reporter assay (HEK-Blue SEAP); conditions: HEK-Blue cells overexpressing human TLR8, stimulated with R848 15.9 μM, 22 hour incubation
T3 construct: host or cells: HEK-Blue cells
T3 sequence (Q9NR97 27-1041): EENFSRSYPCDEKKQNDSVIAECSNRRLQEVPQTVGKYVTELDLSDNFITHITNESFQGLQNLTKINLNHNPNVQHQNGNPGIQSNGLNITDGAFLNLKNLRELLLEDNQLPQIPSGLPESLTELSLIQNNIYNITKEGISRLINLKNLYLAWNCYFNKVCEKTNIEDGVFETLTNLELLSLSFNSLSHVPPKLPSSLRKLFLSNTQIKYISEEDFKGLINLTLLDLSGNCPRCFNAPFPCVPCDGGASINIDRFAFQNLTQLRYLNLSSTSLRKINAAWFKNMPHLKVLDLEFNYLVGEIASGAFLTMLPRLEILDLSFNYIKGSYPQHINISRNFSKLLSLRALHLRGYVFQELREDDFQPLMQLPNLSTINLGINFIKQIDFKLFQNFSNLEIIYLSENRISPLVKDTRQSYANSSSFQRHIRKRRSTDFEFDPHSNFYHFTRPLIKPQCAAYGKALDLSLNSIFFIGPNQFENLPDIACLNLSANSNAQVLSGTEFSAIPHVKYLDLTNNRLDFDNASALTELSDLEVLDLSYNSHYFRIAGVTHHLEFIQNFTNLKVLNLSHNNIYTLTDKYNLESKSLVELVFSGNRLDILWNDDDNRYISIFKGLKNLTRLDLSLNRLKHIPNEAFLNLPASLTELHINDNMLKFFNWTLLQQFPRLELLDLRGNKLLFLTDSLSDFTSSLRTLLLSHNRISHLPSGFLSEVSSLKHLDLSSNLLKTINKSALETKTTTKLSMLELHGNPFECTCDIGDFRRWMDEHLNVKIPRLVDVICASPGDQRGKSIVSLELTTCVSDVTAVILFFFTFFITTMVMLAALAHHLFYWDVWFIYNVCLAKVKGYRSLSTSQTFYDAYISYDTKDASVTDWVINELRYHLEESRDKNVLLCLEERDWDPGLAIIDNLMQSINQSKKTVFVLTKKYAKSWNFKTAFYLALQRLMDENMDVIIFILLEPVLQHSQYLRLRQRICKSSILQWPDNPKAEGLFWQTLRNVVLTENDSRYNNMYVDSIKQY
In short: as §1

Question: For `Cc1cc(-c2cc(C)c3ncnn3c2)cc2[nH]nc(C3CCCN(C4CCOCC4)C3)c12` (stereo not drawn) [Example 60, 8-methyl-6-(4-methyl-3-(1-(tetrahydro-2H-pyran-4-yl)piperidin-3-yl)-1H-indazol-6-yl)-[1,2,4]triazolo[1,5-a]pyridine], which IC50 (human TLR9) is on record?
Answer: 4250 nM

Question: What about the IC50 (human TLR7) of the same compound?
Answer: 79.3 nM

Question: What about the IC50 (human TLR8) of the same compound?
Answer: 62.2 nM

Question: With `Cc1cc(-c2cc(C)c3ncnn3c2)cc2[nH]nc(C3CCCN(C)C3)c12` (stereo not drawn) [Example 61, 8-methyl-6-(4-methyl-3-(1-methylpiperidin-3-yl)-1H-indazol-6-yl)-[1,2,4]triazolo[1,5-a]pyridine] as the compound, how does the IC50 (human TLR9) read?
Answer: 3340 nM

Question: What about the IC50 (human TLR7) of the same compound?
Answer: 13.5 nM

Question: And the IC50 (human TLR8)?
Answer: 19.5 nM

Question: Which results are given for `COc1ccc(-c2cc3[nH]nc(C4CCCNC4)c3cc2C)cc1OC` (stereo not drawn) [Example 62, 6-(3,4-dimethoxyphenyl)-5-methyl-3-(piperidin-3-yl)-1H-indazole]?
Answer: IC50 (human TLR9): 3200 nM; IC50 (human TLR7): 824 nM; IC50 (human TLR8): 5.2 nM

Question: What does the source list for `COc1cc(-c2cc3[nH]ncc3cc2C)cn2ncnc12` [Example 64, 8-methoxy-6-(5-methyl-1H-indazol-6-yl)-[1,2,4]triazolo[1,5-a]pyridine]?
Answer: IC50 (human TLR9): 9040 nM; IC50 (human TLR7): 905 nM; IC50 (human TLR8): 41.8 nM

Question: How did the IC50 (human TLR9) turn out when `Cc1cc(-c2cc(C)c3ncnn3c2)cc2[nH]ncc12` [Example 65, 8-methyl-6-(4-methyl-1H-indazol-6-yl)-[1,2,4]triazolo[1,5-a]pyridine] was run?
Answer: ≥ 50000 nM

Question: What about the IC50 (human TLR7) of the same compound?
Answer: 219 nM

Question: And the IC50 (human TLR8)?
Answer: 47 nM

Question: How did the IC50 (human TLR9) turn out when `COc1cc(-c2cc(C)c3cn[nH]c3c2)cn2ncnc12` [Example 66, 8-methoxy-6-(4-methyl-1H-indazol-6-yl)-[1,2,4]triazolo[1,5-a] pyridine] was run?
Answer: 8840 nM

Question: What about the IC50 (human TLR7) of the same compound?
Answer: 218 nM

Question: What about the IC50 (human TLR8) of the same compound?
Answer: 45.4 nM

Question: With `Cc1cc2c(C3CCN(CC(C)(C)O)CC3)n[nH]c2cc1-c1cc(C)c2ncnn2c1` [Example 67, 2-methyl-1-(4-(5-methyl-6-(8-methyl-[1,2,4]triazolo[1,5-a]pyridin-6-yl)-1H-indazol-3-yl)piperidin-1-yl)propan-2-ol] as the compound, how does the IC50 (human TLR9) read?
Answer: 3960 nM

Question: And the IC50 (human TLR7)?
Answer: 23.8 nM

Question: What about the IC50 (human TLR8) of the same compound?
Answer: 0.9 nM

Question: Which IC50 (human TLR9) does the source give for `Cc1cc2c(C3CCN(CCS(C)(=O)=O)CC3)n[nH]c2cc1-c1cc(C)c2ncnn2c1` [Example 68, 8-methyl-6-(5-methyl-3-(1-(2-(methylsulfonyl)ethyl)piperidin-4-yl)-1H-indazol-6-yl)-[1,2,4]triazolo[1,5-a]pyridine] here?
Answer: 13000 nM

Question: And the IC50 (human TLR7)?
Answer: 68 nM

Question: What about the IC50 (human TLR8) of the same compound?
Answer: 2.5 nM

Question: What does the source list for `Cc1cc2c(C3CCN(CCNS(C)(=O)=O)CC3)n[nH]c2cc1-c1cc(C)c2ncnn2c1` [Example 69, N-(2-(4-(5-methyl-6-(8-methyl-[1,2,4]triazolo[1,5-a]pyridin-6-yl)-1H-indazol-3-yl)piperidin-1-yl)ethyl) methanesulfonamide]?
Answer: IC50 (human TLR9): 1310 nM; IC50 (human TLR7): 18 nM; IC50 (human TLR8): 1.4 nM

Question: For `Cc1cc2c(C3CCN(CC(N)=O)CC3)n[nH]c2cc1-c1cc(C)c2ncnn2c1` [Example 70, 2-(4-(5-methyl-6-(8-methyl-[1,2,4]triazolo[1,5-a]pyridin-6-yl)-1H-indazol-3-yl)piperidin-1-yl)acetamide], which IC50 (human TLR9) is on record?
Answer: 6210 nM

Question: And the IC50 (human TLR7)?
Answer: 18.3 nM

Question: What about the IC50 (human TLR8) of the same compound?
Answer: 1.4 nM

Question: For `Cc1cc2c(C3CCN(CC#N)CC3)n[nH]c2cc1-c1cc(C)c2ncnn2c1` [Example 71, 2-(4-(5-methyl-6-(8-methyl-[1,2,4]triazolo[1,5-a]pyridin-6-yl)-1H-indazol-3-yl)piperidin-1-yl)acetonitrile], which IC50 (human TLR9) is on record?
Answer: 1370 nM

Question: What about the IC50 (human TLR7) of the same compound?
Answer: 9.8 nM

Question: And the IC50 (human TLR8)?
Answer: 3.3 nM

Question: What does the source list for `Cc1cc2c(C3CCN(CCC#N)CC3)n[nH]c2cc1-c1cc(C)c2ncnn2c1` [Example 72, 3-(4-(5-methyl-6-(8-methyl-[1,2,4]triazolo[1,5-a]pyridin-6-yl)-1H-indazol-3-yl)piperidin-1-yl)propanenitrile]?
Answer: IC50 (human TLR9): 11200 nM; IC50 (human TLR7): 50.8 nM; IC50 (human TLR8): 2.3 nM

Question: Which results are given for `Cc1cc2c(C3CCN(C4COC4)CC3)n[nH]c2cc1-c1cc(C)c2ncnn2c1` [Example 73, 8-methyl-6-(5-methyl-3-(1-(oxetan-3-yl)piperidin-4-yl)-1H-indazol-6-yl)-[1,2,4] triazolo[1,5-a]pyridine]?
Answer: IC50 (human TLR9): 9070 nM; IC50 (human TLR7): 52.3 nM; IC50 (human TLR8): 4.3 nM

Question: Which IC50 (human TLR9) does the source give for `Cc1cc2c(C3CCNCC3)n[nH]c2cc1-c1cc(C)c2nnnn2c1` [Example 74, 8-methyl-6-(5-methyl-3-(piperidin-4-yl)-1H-indazol-6-yl) tetrazolo[1,5-a]pyridine] here?
Answer: 4940 nM

Question: What about the IC50 (human TLR7) of the same compound?
Answer: 49.3 nM

Question: And the IC50 (human TLR8)?
Answer: 15.5 nM

Question: Which IC50 (human TLR9) does the source give for `Cc1cc(-c2cc(C)c3ncnn3c2)cc2[nH]nc(C3CCN(C(=O)CN(C)C)CC3)c12` [Example 75, 2-(dimethylamino)-1-(4-(4-methyl-6-(8-methyl-[1,2,4]triazolo[1,5-a]pyridin-6-yl)-1H-indazol-3-yl)piperidin-1-yl)ethan-1-one] here?
Answer: 1920 nM

Question: And the IC50 (human TLR7)?
Answer: 7.2 nM

Question: What about the IC50 (human TLR8) of the same compound?
Answer: 14.1 nM

Source: patent US12172995B2, “Substituted indole and indazole compounds” (BRISTOL-MYERS SQUIBB COMPANY, priority 2018, dated 2024)
